Source: patent US20260224573A1, “CRYSTAL FORM OF COMPOUND, AND PREPARATION METHOD AND USE THEREOF” (FELICAMED BIOTECHNOLOGY CO., LTD., priority 2023, published 2026)
Read-outs that look alike come from different tables or passages of the source.

Tests used:
[1] = Pharmacokinetics of free crystal form A in Beagle dogs; type: in vivo; conditions: for MRT last: read-out: MRT0-t; for bioavailability: from average AUC0-t after dose correction, read-out: F (oral bioavailability)
Procedure: All the animals in this experiment were randomly divided into 4 groups (3 dogs/sex/group). The animals in the group A, the group B, and the group D were fasted before administration, and the animals in the group C were fasted before the first administration and the last administration. All the animals were fasted for at least 12 h before administration, and food was resumed 4 h after administration. All the animals had free access to water and food during the experiment. The animals in the group A were intravenously injected with the drug at 2 mg/kg, and blood samples were collected from the jugular vein before and 0.033 […], and 24 h after administration. The animals in the group B and the group D received single intragastric administration of the drugs at 2 mg/kg and 20 mg/kg, respectively, and blood samples were collected from the jugular vein before and 0.083 […], and 24 h after administration. […] Blood samples were collected from the jugular vein before the first administration and the seventh administration and 0.083 […], and 24 h after administration. Blood samples were collected from the jugular vein before administration and 0.5 h after administration from the second administration to the sixth administration. The sample collected before the second administration was the sample collected 24 h after the first administration. The blood samples from the animals were collected through the jugular vein, with a blood sample volume of 0.5 mL/time. All collected whole blood samples were placed in centrifuge tubes containing ethylene diamine tetraacetic acid potassium salt (EDTA-K2), and the centrifuge tubes were turned upside down to allow the anticoagulant and blood to be fully mixed. All the samples were placed on wet ice before centrifugation and centrifuged at 1524 g for 10 min to separate plasma. The plasma samples were transferred to new centrifuge tubes and stored at -90° C. to […] until analysis. The drug concentration in the plasma of each Beagle dog was determined by liquid chromatography with tandem mass spectrometry (LC-MS/MS). The obtained plasma concentration data was analyzed by using the pharmacokinetic processing software WinNonlin 8.0 with a non-compartmental model to calculate relevant pharmacokinetic parameters.

[2] = Procedure: A method for testing the density and the tapped density included: (1) a certain mass of to-be-assessed sample was placed into a 5 mL measuring cylinder, and the volume at this moment was recorded. The bulk density was calculated by dividing the mass of the sample by the volume at this moment. (2) The measuring cylinder was slightly tapped 200 times, the final volume was recorded, and the tapped density was calculated by dividing the mass of the sample by the final volume. (3) Three parallel tests were conducted. A method for testing the angle of repose included: (1) a funnel was fixed vertically to a bottom surface, and the material was slowly placed into the funnel. (2) A well-proportioned cone of the material was formed on the bottom surface. The height and bottom surface diameter of the cone were measured. (3) Three parallel tests were conducted.
[3] = TGA weight loss / thermal stability; type: physicochemical
Source text: TGA and DSC patterns were collected on a TA Q5000 thermogravimetric analyzer and a TA Discovery 2500 differential scanning calorimeter, respectively.
TGA results were collected on a TA Discovery 5500 thermogravimetric analyzer, and DSC results were collected on a TA Discovery 2500 differential scanning calorimeter.

[4] = both sexes, Beagle, dog, plasma, po, 2 mg/kg, i.g. 2 mg/kg single, male/female mean
[5] = both sexes, Beagle, dog, plasma, po, 6 mg/kg, i.g. 6 mg/kg once a day, seventh administration, male/female mean
[6] = both sexes, Beagle, dog, plasma, po, 6 mg/kg, i.g. 6 mg/kg, first administration, male/female mean
[7] = both sexes, Beagle, dog, plasma, po, 20 mg/kg, i.g. 20 mg/kg single, male/female mean
[8] = both sexes, Beagle, dog, plasma, po, i.g. 2 mg/kg single, male/female mean
[9] = both sexes, Beagle, dog, plasma, po, i.g. 6 mg/kg once a day, seventh administration, male/female mean
[10] = both sexes, Beagle, dog, plasma, po, i.g. 6 mg/kg, first administration, male/female mean
[11] = both sexes, Beagle, dog, plasma, po, i.g. 20 mg/kg single, male/female mean
[12] = both sexes, beagle, dog, plasma, iv, 2 mg/kg, i.v. 2 mg/kg, male and female, mean
[13] = both sexes, beagle, dog, plasma, iv, i.v. 2 mg/kg, male and female, mean

CC[S@@](=N)(=O)C[C@H]1CC[C@H](N(C)c2ncnc3[nH]ccc23)CC1 [Free crystal form A]
AUC(0-t) [1, 4]: 8750 ng·h/mL | MRT last [1, 4]: 5.37 h | AUC(0-t) [1, 5]: 26600 ng·h/mL | MRT last [1, 5]: 5.12 h | AUC(0-t) [1, 6]: 30000 ng·h/mL | MRT last [1, 6]: 5.49 h | AUC(0-t) [1, 7]: 101000 ng·h/mL | MRT last [1, 7]: 5.2 h | bioavailability ([1]; both sexes, Beagle, dog, plasma, po, i.g. 2 mg/kg single): 88% | Cmax [1, 8]: 1350 ng/mL | Tmax [1, 8]: 1.33 h | half-life [1, 8]: 3.89 h | Cmax at 7 days [1, 9]: 4540 ng/mL | Tmax at 7 days [1, 9]: 0.75 h | half-life at 7 days [1, 9]: 4.1 h | bioavailability ([1]; both sexes, Beagle, dog, plasma, po, i.g. 6 mg/kg, first administration): 100% | Cmax [1, 10]: 4710 ng/mL | Tmax [1, 10]: 0.958 h | half-life [1, 10]: 4.2 h | bioavailability ([1]; both sexes, Beagle, dog, plasma, po, i.g. 20 mg/kg single): 101% | Cmax [1, 11]: 13300 ng/mL | Tmax [1, 11]: 0.792 h | half-life [1, 11]: 4.17 h | AUC(0-t) [1, 12]: 9940 ng·h/mL | MRT last [1, 12]: 4.3 h | C0 [1, 13]: 4250 ng/mL | clearance [1, 13]: 3.4 mL/min/kg | half-life [1, 13]: 3.68 h | Vd ([1]; both sexes, beagle, dog, plasma, iv, i.v. 2 mg/kg, male and female, mean, read-out: VdSS): 0.939 L/kg | drug accumulation ([1]; i.g. 6 mg/kg for 7 consecutive days): No significant drug accumulation | male-to-female ratio of AUC0-t ([1]; i.v. 2 mg/kg): 0.748 | male-to-female ratio of C0 ([1]; i.v. 2 mg/kg): 0.758 | clinical observation ([1]; i.v. 2 mg/kg, i.g. 2, 6, 20 mg/kg, before and after administration and blood sampling): no obvious abnormalities were found | flowability ([2]; conclusion from Carr index and angle of repose): high flowability | Bulk density ([2]; single tests 1 to 3): 0.11 g/mL | Tapped density ([2]; single tests 1 to 3, tapped 200 times): 0.23 g/mL | Average bulk density ([2]; three parallel tests): 0.11 g/mL | Average tapped density ([2]; three parallel tests, tapped 200 times): 0.23 g/mL | thermal stability ([3]; comparison of TGA/DSC patterns): high | TGA weight loss ([3]; heated from room temperature to 180° C.): 1.7%
